Test results as given in patent US20110098269A1, “Substituted Pyridazinone Derivatives as Histamine-3 (H3) Receptor Ligands” (Cephalon, Inc., priority 2008, published 2011).
Structures can show the parent of a compound that is named as a salt.

How the values were obtained:
[1] = biological target: T1, rat histamine H3 receptor (Rattus norvegicus, UniProt Q9QYN8); test: Rat H3 radioligand binding ([3H]-N-alpha-methylhistamine, CHO-A3 cell membranes); conditions: Rat H3 binding constant, class symbols; read-out: rH3 Ki
T1 construct: encoding the entire 445-amino-acid rat histamine H3 receptor; expressed in transfected cells
From the text: Cell line development and membrane preparation. The rat H3 receptor cDNA was PCR amplified from reverse-transcribed RNA pooled from rat thalamus, hypothalamus, striatum and prefrontal cortex with a sequence corresponding to by #338-1672 of Genbank file #NM_053506, encoding the entire 445-amino-acid rat histamine H3 receptor. This was engineered into the pIRES-neo3 mammalian expression vector, which was stably transfected into the CHO-A3 cell line (Euroscreen, Belgium), followed by clonal selection by limiting dilution. Cells were harvested and cell pellets were frozen (−80° C.). Cell pellets were resuspended in 5 mM Tris-HCl, pH 7.5 with 5 nM EDTA and a cocktail of protease inhibitors (Complete Protease Inhibitor Tablets, Roche Diagnostics). Cells were disrupted using a polytron cell homogenizer and the suspension was centrifuged at 1000×g for 10 minutes at 4° C. The pellet was discarded and the supernatant centrifuged at 40,000×g for 30 min at 4° C. This membrane pellet was washed in membrane buffer containing 50 mM Tris-HCl, pH 7.5 with 0.6 mM EDTA, 5 mM MgCl2 and protease inhibitors, recentrifuged as above and the final pellet resuspended in membrane buffer plus 250 mM sucrose and frozen at −80° C.
(§1) Radioligand Binding. Membranes were resuspended in 50 mM Tris HCl (pH 7.4), 5 mM MgCl2, 0.1% BSA. The membrane suspensions (10 μg protein per well) were incubated in a 96 well microtiter plate with [^3H]-N-alpha-methylhistamine (approximately 1 nM final concentration), test compounds at various concentrations (0.01 nM-30 μM) and scintillation proximity beads (Perkin Elmer, FlashBlueGPCR Scintillating Beads) in a final volume of 80 μl for 4 hours at room temperature, protected from light. Non-specific binding was determined in the presence of 10 μM clobenpropit. Radioligand bound to receptor, and therefore in proximity to the scintillation beads, was measured using a MicroBeta scintillation counter.

human H3 receptor = biological target: T2, human H3 receptor (Homo sapiens, UniProt Q9Y5N1); test: Human H3 radioligand binding ([3H]-N-alpha-methylhistamine, CHO cell membranes); conditions: Human H3 binding constant, class symbols; read-out: hH3 Ki
T2 construct: expressed in transfected cells
Protocol: Methods: CHO cells stably expressing the human H3 receptor (GenBank: NM_007232) were harvested and cell pellets were frozen (−80° C.). Cell pellets were resuspended in 5 mM Tris-HCl, pH 7.5 with 5 nM EDTA and a cocktail of protease inhibitors (Complete Protease Inhibitor Tablets, Roche Diagnostics). Cells were disrupted using a polytron cell homogenizer and the suspension was centrifuged at 1000×g for 10 minutes at 4° C. The pellet was discarded and the supernatant centrifuged at 40,000×g for 30 min at 4° C. This membrane pellet was washed in membrane buffer containing 50 mM Tris-HCl, pH 7.5 with 0.6 mM EDTA, 5 mM MgCl2 and protease inhibitors, recentrifuged as above and the final pellet resuspended in membrane buffer plus 250 mM sucrose and frozen at −80° C.
as §1

T1 sequence (Q9QYN8 whole entry): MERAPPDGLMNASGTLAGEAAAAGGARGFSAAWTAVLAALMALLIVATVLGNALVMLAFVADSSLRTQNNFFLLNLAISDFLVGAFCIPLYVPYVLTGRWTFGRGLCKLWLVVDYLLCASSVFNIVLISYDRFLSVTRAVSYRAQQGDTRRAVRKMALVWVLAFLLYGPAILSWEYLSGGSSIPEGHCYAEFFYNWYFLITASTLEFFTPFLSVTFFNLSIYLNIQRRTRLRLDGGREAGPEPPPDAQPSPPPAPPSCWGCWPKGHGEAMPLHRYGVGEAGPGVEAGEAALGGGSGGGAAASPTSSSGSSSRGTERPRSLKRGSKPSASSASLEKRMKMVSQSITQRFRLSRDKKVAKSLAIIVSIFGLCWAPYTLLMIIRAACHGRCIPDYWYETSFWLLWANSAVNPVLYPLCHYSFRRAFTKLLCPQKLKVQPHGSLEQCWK
T2 sequence (Q9Y5N1 whole entry): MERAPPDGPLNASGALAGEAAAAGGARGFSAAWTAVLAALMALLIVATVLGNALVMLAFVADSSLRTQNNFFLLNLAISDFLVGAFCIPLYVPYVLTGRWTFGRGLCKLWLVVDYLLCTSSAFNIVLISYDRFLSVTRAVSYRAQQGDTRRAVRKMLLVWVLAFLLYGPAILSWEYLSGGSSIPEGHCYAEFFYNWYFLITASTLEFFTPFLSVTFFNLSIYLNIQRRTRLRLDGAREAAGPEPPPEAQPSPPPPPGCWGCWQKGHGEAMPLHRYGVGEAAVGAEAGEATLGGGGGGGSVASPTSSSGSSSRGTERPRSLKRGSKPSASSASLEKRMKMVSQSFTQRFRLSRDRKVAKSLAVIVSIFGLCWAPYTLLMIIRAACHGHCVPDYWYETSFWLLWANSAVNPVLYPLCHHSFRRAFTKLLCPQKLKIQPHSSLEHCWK

Compound | Ki [1] [nM] | Ki (human H3 receptor) [nM]
CC(C)N1N=C(c2ccc3c(c2)CCNCC3)CCC1=O [Example 3, 2-Isopropyl-6-(2,3,4,5-tetrahydro-1H-benzo[d]azepin-7-yl)-4,5-dihydro-2H-pyridazin-3-one] | 100 to 1000 | 100 to 1000
CC(C)n1nc(-c2ccc3c(c2)CCNCC3)ccc1=O [Example 5, 2-Isopropyl-6-(2,3,4,5-tetrahydro-1H-benzo[d]azepin-7-yl)-2H-pyridazin-3-one] | 100 to 1000 | 100 to 1000
CC(C)N1CCc2ccc(-c3ccc(=O)n(C)n3)cc2CC1 [Example 22, 6-(3-Isopropyl-2,3,4,5-tetrahydro-1H-benzo[d]azepin-7-yl)-2-methyl-2H-pyridazin-3-one. HCl] | 100 to 1000 | 100 to 1000
CS(=O)(=O)c1ccc(-n2nc(-c3ccc4c(c3)CCNCC4)ccc2=O)cc1 [Example 24, 2-(4-Methanesulfonyl-phenyl)-6-(2,3,4,5-tetrahydro-1H-benzo[d]azepin-7-yl)-2H-pyridazin-3-one] |  | > 1000
O=C1NN=C(c2ccc3c(c2)CCNCC3)C2CC12 (stereo not shown) [Example 39, 5-(2,3,4,5-Tetrahydro-1H-benzo[d]azepin-7-yl)-3,4-diaza-bicyclo[4.1.0]hept-4-en-2-one] | 100 to 1000 | 100 to 1000
O=C1NN=C(c2ccc3c(c2)CCNCC3)C2CCCC12 (stereo not shown) [Example 41, 4-(2,3,4,5-Tetrahydro-1H-benzo[d]azepin-7-yl)-2,4-a,5,6,7,7a-hexahydro-cyclopenta[d]pyridazin-1-one] | 100 to 1000 | 100 to 1000
Cn1nc(-c2ccc(C(=O)N3CCN4CCC[C@H]4C3)cc2)ccc1=O [Example 48, 6-[4-((S)-Hexahydro-pyrrolo[1,2-a]pyrazine-2-carbonyl)-phenyl]-2-methyl-2H-pyridazin-3-one] | 100 to 1000 | 100 to 1000
CC(C)N(C)CCc1ccc(-c2ccc(=O)n(C)n2)cc1 [Example 54] | 100 to 1000 | 100 to 1000
CN(CCc1ccc(-c2ccc(=O)n(C)n2)cc1)C1CCCCC1 [Example 55] | 100 to 1000 | 100 to 1000
CCN(CC)CCc1ccc(-c2ccc(=O)n(C)n2)cc1 [Example 56] | 100 to 1000 | 100 to 1000
CCNCCc1ccc(-c2ccc(=O)n(C)n2)cc1 [Example 57] | 100 to 1000 | 100 to 1000
CC(=O)N1CCN(CCc2ccc(-c3ccc(=O)n(C)n3)cc2)CC1 [Example 58] | 100 to 1000 | 100 to 1000
Cn1nc(-c2ccc(CCN3CCC3)cc2)ccc1=O [Example 60] | 100 to 1000 | 100 to 1000
CCN(CCc1ccc(-c2ccc(=O)n(C)n2)cc1)C1CCC1 [Example 62] | 100 to 1000 | 100 to 1000
Cn1nc(-c2ccc(CCN3CCCCC3)cc2)ccc1=O [Example 64] | 100 to 1000 | 100 to 1000
O=c1ccc(-c2ccc(CCN3CCCCC3)cc2)nn1-c1ccccc1 [Example 65] | 100 to 1000 | 100 to 1000
C[C@@H]1CCCN1CCc1ccc(-c2ccc(=O)n(-c3ccccc3)n2)cc1 [Example 66] | < 100 | < 100

Next, values leading:

Ki [1] [nM] | Ki (human H3 receptor) [nM] | Compound
100 to 1000 | < 100 | Cn1nc(-c2ccc3c(c2)CCN(C2CCCC2)CC3)ccc1=O [Example 23, 6-(3-Cyclopentyl-2,3,4,5-tetrahydro-1H-benzo[d]azepin-7-yl)-2-methyl-2H-pyridazin-3-one. HCl]
< 100 | < 100 | Cn1ncc(Oc2ccc3c(c2)CCN(C2CCC2)CC3)c(Cl)c1=O [Example 30, 4-Chloro-5-(3-cyclobutyl-2,3,4,5-tetrahydro-1H-benzo[d]azepin-7-yloxy)-2-methyl-2H-pyridazin-3-one]
< 100 | < 100 | Cn1ncc(Oc2ccc3c(c2)CCN(C2CCC2)CC3)c(Br)c1=O [Example 31, 4-Bromo-5-(3-cyclobutyl-2,3,4,5-tetrahydro-1H-benzo[d]azepin-7-yloxy)-2-methyl-2H-pyridazin-3-one]
< 100 | < 100 | Cn1ncc(Oc2ccc3c(c2)CCN(C2CCCC2)CC3)c(Br)c1=O [Example 32, 4-Bromo-5-(3-cyclopentyl-2,3,4,5-tetrahydro-1H-benzo[d]azepin-7-yloxy)-2-methyl-2H-pyridazin-3-one]
< 100 | < 100 | O=c1c(Cl)c(Oc2ccc3c(c2)CCN(C2CCC2)CC3)cnn1-c1ccccn1 [Example 33, 4-Chloro-5-(3-cyclobutyl-2,3,4,5-tetrahydro-1H-benzo[d]azepin-7-yloxy)-2-pyridin-2-yl-2H-pyridazin-3-one]
100 to 1000 | < 100 | O=c1c(Cl)c(Oc2ccc3c(c2)CCN(C2CCC2)CC3)cnn1CC(F)(F)F [Example 34, 4-Chloro-5-(3-cyclobutyl-2,3,4,5-tetrahydro-1H-benzo[d]azepin-7-yloxy)-2-(2,2,2-trifluoro-ethyl)-2H-pyridazin-3-one]
100 to 1000 | < 100 | Cn1ncc(Oc2ccc3c(c2)CCN(C2CCC2)CC3)cc1=O [Example 35, 5-(3-Cyclobutyl-2,3,4,5-tetrahydro-1H-benzo[d]azepin-7-yloxy)-2-methyl-2H-pyridazin-3-one]
100 to 1000 | < 100 | Cn1ncc(Oc2ccc3c(c2)CCN(C2CCCC2)CC3)cc1=O [Example 36, 5-(3-Cyclopentyl-2,3,4,5-tetrahydro-1H-benzo[d]azepin-7-yloxy)-3-methyl-2H-pyridazin-3-one]
100 to 1000 | < 100 | COCn1ncc(Oc2ccc3c(c2)CCN(C2CCC2)CC3)cc1=O [Example 37, 5-(3-Cyclobutyl-2,3,4,5-tetrahydro-1H-benzo[d]azepin-7-yloxy)-2-methoxymethyl-2H-pyridazin-3-one]
100 to 1000 | < 100 | COCn1ncc(Oc2ccc3c(c2)CCN(C2CCCC2)CC3)cc1=O [Example 38, 5-(3-Cyclopentyl-2,3,4,5-tetrahydro-1H-benzo[d]azepin-7-yloxy)-2-methoxymethyl-2H-pyridazin-3-one]
100 to 1000 | < 100 | O=C1NN=C(c2ccc3c(c2)CCN(C2CCC2)CC3)C2CC12 (stereo not shown) [Example 40, 5-(3-Cyclobutyl-2,3,4,5-tetrahydro-1H-benzo[d]azepin-7-yl)-3,4-diaza-bicyclo[4.1.0]hept-4-en-2-one]
< 100 | < 100 | Cn1nc(-c2ccc(C(=O)N3CCC[C@H]3CN3CCCC3)cc2)ccc1=O [Example 45, 2-Methyl-6-[4-((S)-2-pyrrolidin-1-ylmethyl-pyrrolidine-1-carbonyl)-phenyl]-2H-pyridazin-3-one]
100 to 1000 | < 100 | O=C(c1ccc(-c2ccc(=O)n(-c3ccc(F)cc3)n2)cc1)N1CCC[C@H]1CN1CCCC1 [Example 49, 2-(4-Fluoro-phenyl)-6-[4-((S)-2-pyrrolidin-1-ylmethyl-pyrrolidine-1-carbonyl)-phenyl]-2H-pyridazin-3-one]
< 100 | < 100 | C[C@@H]1CCCN1CCc1ccc(-c2ccc(=O)n(-c3ccc(Cl)cc3)n2)cc1 [Example 52]
< 100 | < 100 | C[C@@H]1CCCN1CCc1ccc(-c2ccc(=O)n(Cc3ccccc3)n2)cc1 [Example 53]
100 to 1000 | < 100 | CN(CCc1ccc(-c2ccc(=O)n(C)n2)cc1)C1CCC1 [Example 61]
< 100 | < 100 | C[C@@H]1CCCN1CCc1ccc(-c2ccc(=O)n(C)n2)cc1 [Example 63]
